According to patent publication US9199965B2, “Benzoimidazole derivatives and pharmaceutical composition comprising the same” (Daewoong Co., Ltd., priority 2005, dated 2015):

What was measured:
rat TRPV1 = target: T1, rat TRPV1 (Rattus norvegicus, UniProt O35433); test: Assay for inhibitory activity against VR1 patch clamp activity (capsaicin current, inside-out patch); format: cell-based; details: 1 μM compound with 10 μM capsaicin; rat TRPV1-transfected HEK293, inside-out patch; relative to capsaicin current before compound
T1 construct: expressed in transfected cells; host or cells: HEK293
T1 sequence (O35433 whole entry): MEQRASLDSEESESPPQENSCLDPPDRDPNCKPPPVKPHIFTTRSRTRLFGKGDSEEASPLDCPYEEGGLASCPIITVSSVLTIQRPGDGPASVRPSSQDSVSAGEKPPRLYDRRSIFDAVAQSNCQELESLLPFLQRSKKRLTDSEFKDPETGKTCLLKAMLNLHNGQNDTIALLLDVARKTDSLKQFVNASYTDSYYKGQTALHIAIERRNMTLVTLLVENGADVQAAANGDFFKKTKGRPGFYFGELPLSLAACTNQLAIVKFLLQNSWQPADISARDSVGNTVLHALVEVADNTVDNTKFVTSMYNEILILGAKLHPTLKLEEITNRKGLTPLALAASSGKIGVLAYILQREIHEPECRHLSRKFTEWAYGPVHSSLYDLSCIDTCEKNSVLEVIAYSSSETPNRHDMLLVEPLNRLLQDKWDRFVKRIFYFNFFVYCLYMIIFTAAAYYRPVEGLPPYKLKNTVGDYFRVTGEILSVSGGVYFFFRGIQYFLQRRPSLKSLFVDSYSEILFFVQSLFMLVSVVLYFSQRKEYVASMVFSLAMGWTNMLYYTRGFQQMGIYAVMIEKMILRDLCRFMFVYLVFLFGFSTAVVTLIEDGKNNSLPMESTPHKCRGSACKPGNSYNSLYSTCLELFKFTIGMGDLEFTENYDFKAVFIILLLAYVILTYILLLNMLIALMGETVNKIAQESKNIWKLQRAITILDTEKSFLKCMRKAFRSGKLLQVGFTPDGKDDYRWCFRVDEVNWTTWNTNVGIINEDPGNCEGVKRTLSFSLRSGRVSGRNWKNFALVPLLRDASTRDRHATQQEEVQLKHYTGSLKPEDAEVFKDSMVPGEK
Procedure: Each of the compounds synthesized in the examples were dissolved in dimethyl sulfoxide (DMSO) at a concentration of 10 mM. For use in the assay for inhibitory activity against patch clamp activity, the solutions were diluted to a concentration of 1 μM with the same physiological saline as in the pipette solution of Table 1, below.
2) Assay for Inhibitory Activity Against VR1 Patch Clamp Activity
In this experiment, changes in VR1 activity were recorded in current using an electrophysiological technique.
For use in this experiment, a rat TRPV1 cDNA was transfected into a subcultured HEK293 strain with the aid of lipofectamin.
The rat TRPV1 gene-transfected HEK293 cells were detached from the cell culture dishes with trypsin and distributed on a patch clamp recording chamber.
A cover glass slip on the bottom of the patch clamp recording chamber was treated for 15 min or longer with a […] poly-L-lysine solution so that the HEK cells would readily adhere thereto. Cellular membranes were ruptured at room temperature (˜25° C.) from randomly selected HEK cells to perform an inside-out patch clamp technique. 10 μM of capsaicin was fed into the chamber (cytoplasmic side) to activate a capsaicin current through the VR1. When the capsaicin current reached a stable stage, each compound was added along with 10 μM of capsaicin to record the inhibitory activity of the compounds with regard to the current. The inhibition was expressed as percentages.
Detected current was amplified using a Digidata 1200B A/D converter and an Axopatch 1D amplifier (Axon instruments Inc.), and the data were recorded and analyzed with the aid of a computer. The inhibitory activity of each compound was expressed as a percentage relative to the capsaicin current immediately before the administration of each compound.

human vanilloid-1 (hVR1) = target: T2, human vanilloid-1 (hVR1) (Homo sapiens, UniProt Q8NER1); test: Calcium influx of vanilloid receptor in hVR1-HEK293 cells (capsaicin-induced, Fluo-3/AM); format: cell-based; details: 1 μM capsaicin-induced intracellular calcium influx, read-out: Inhibitory Activity IC50
T2 construct: expressed in transfected cells; host or cells: HEK293 Tet-on (hVR1-HEK293), doxycycline-induced
T2 sequence (Q8NER1 whole entry): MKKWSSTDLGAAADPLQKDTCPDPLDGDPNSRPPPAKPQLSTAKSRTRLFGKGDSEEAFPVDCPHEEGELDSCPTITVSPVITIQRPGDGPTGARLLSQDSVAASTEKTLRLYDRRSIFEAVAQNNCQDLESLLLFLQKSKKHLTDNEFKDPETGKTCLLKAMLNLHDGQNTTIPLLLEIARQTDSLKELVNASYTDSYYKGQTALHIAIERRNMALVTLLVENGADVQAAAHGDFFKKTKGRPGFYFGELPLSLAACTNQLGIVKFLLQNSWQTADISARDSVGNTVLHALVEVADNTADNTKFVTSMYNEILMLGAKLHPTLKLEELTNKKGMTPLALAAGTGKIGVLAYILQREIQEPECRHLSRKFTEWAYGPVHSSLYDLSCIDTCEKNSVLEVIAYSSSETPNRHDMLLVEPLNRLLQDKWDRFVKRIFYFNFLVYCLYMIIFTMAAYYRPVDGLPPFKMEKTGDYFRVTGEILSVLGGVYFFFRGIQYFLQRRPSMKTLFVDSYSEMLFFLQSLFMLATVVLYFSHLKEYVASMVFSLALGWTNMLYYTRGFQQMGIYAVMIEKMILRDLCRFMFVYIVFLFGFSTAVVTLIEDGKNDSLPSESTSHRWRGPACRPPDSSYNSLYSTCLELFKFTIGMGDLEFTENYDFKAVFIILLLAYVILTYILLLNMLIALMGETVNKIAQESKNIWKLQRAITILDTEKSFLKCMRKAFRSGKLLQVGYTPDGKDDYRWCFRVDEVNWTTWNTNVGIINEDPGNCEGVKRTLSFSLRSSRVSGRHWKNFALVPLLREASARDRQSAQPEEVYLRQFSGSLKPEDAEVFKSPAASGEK
Procedure: Experiments for calcium influx were performed to measure the activity of the compounds as antagonists.
The cell strain hVR1-HEK293 is the human embryonic kidney (HEK) 293 Tet-on cell transfected with a human vanilloid-1 gene (pTRE2hyg-hVR1, 7.8 kb), which is capable of controlling the expression of VR1 according to the administration of deoxycycline, a tetracycline derivative analog. In a medium supplemented with deoxycycline two days before calcium influx experiments, the cell strain was cultured to induce the expression of VR1. After being grown to a confluency of about 80% in T75 flasks, hVR1-HEK293 was detached from the flask using trypsin. Cells harvested by centrifugation were suspended in a medium supplemented with 1 μg/mL of deoxycycline and diluted to a density of 2-4×10^5 cells/mL, after which a 100 μL aliquot of the cell suspension was added to each well of 96 well black plates. Before the measurement of calcium influx, the cells were incubated for two days at 37° C. in a 5% CO2 incubator.
For use in calcium influx experiments, each compound was dissolved in dimethyl sulfoxide (DMSO).
To measure an intracellular calcium influx, cells were incubated at 37° C. for 90 min in a medium containing the calcium indicator Fluo-3/AM so as to allow the fluorescent dye to penetrate into the cells. Then, the cells were washed three times with D-PBS (Dulbecco's phosphate buffered saline) containing 10 mM HEPES to remove the fluorescent dye which remained outside. 193 μL aliquot of D-PBS was added to each well, followed by the addition of various concentrations of compounds thereto. In order to measure the antagonistic activity of the compounds, calcium influx was induced by treatment with 1 μM capsaicin. The inhibitory effect of each compound on 1 μM capsaicin-induced intracellular calcium influx according to compound concentration was measured using a fluorescent analyzer and the data thus obtained were analyzed on the basis of the Hill's equation.

[1] = tested on: ICR male mice (PBQ-induced writhing); test: PBQ-induced writhing test for analgesic effect; format: in vivo; details: Mus musculus, 1 h, 20 mg/kg oral, one hour before intraabdominal PBQ (0.02%), read-out: % Inhibition (decrease in number of writhes compared to control)
Procedure: A PBQ-induced writhing test was conducted in mice to assay for the analgesic effect of the novel compounds. Five-week-old ICR male mice were treated with PBQ (phenyl-p-quinone, 0.02%). A suspension of 20 mg of test material in 10 mL of physiological saline was used per kg of weight of mice. Test materials in combination with a carrier were orally administered one hour before the intraabdominal injection of PBQ in a dose of 10 mL per kg weight. From 5 min after the injection, individual mice in each test group were measured for numbers of writhes at regular intervals of 10 min. Analgesic effects of test compounds were expressed as percentages of the decrease in number of writhes compared to a control. [% Inhibition=(Control administered with carrier alone−Group administered with test material)/control administered with carrier alone×100]

SMILES	inhibition at 1 µM (rat TRPV1)	IC50 (human vanilloid-1 (hVR1))	inhibition in vivo at 20 mg/kg [1]
Cc1ccc2nc(-c3ccc(-c4ncccc4Cl)cc3)[nH]c2c1C [Compound 10, 2-[4-(3-chloropyridin-2-yl)phenyl]-6,7-dimethyl-1H-benzoimidazole]	80%	114 nM	
FC(F)(F)c1cccnc1-c1ccc(-c2nc3ccc(Cl)cc3[nH]2)cc1 [Compound 32, 6-chloro-2-[4-(3-trifluoromethylpyridin-2-yl)phenyl]-1H-benzoimidazole]	78%	13 nM	
FC(F)(F)c1cnc2nc(-c3ccc(-c4ncccc4C(F)(F)F)cc3)[nH]c2c1 [Compound 34, 6-trifluoromethyl-2-[4-(3-trifluoromethylpyridin-2-yl)phenyl]-1H-imidazo[4,5-b]pyridine]	16%	26 nM	
CC(C)(C)c1ccc2nc(-c3ccc(-c4ncc(Cl)cc4Cl)cc3F)[nH]c2c1 [Compound 70, 6-tert-butyl-2-[4-(3,5-dichloropyridin-2-yl)-2-fluorophenyl]-1H-benzoimidazole]	45%		
FC(F)(F)c1cc(C(F)(F)F)c2nc(-c3ccc(-c4ccccn4)c4ccccc34)[nH]c2c1 [Compound 115, 2-(4-pyridin-2-ylnaphthalen-1-yl)-4,6-bistrifluoromethyl-1H-benzoimidazole]	71%		
CC(C)(C)c1ccc2nc(-c3ccc(-c4ncccc4Cl)c(Cl)c3)[nH]c2c1 [Compound 116, 6-tert-butyl-2-[3-chloro-4-(3-chloropyridin-2-yl)phenyl]-1H-benzoimidazole]	30%		
FC(F)(F)c1ccc2nc(-c3ccc(-c4ncc(Cl)cc4Cl)c(Cl)c3)[nH]c2c1 [Compound 117, 2-[3-chloro-4-(3,5-dichloropyridin-2-yl)phenyl]-6-trifluoromethyl-1H-benzoimidazole]	80%	525 nM	
CC(C)(C)c1ccc2nc(-c3ccc(-c4ncc(C(F)(F)F)cc4Cl)c(Cl)c3)[nH]c2c1 [Compound 121, 6-tert-butyl-2-[3-chloro-4-(3-chloro-5-trifluoromethylpyridin-2-yl)phenyl]-1H-benzoimidazole]	76%		
FC(F)(F)c1ccc2nc(-c3ccc(-c4ncc(Cl)cc4Cl)cn3)[nH]c2c1 [Compound 151, 3,5-dichloro-6′-(6-trifluoromethyl-1H-benzoimidazole-2-yl)-[2,3′]bipyridine]	84%	97 nM	
FC(F)(F)c1cc(Cl)c2nc(-c3ccc(-c4ncccc4C(F)(F)F)cn3)[nH]c2c1 [Compound 161, 6′-(4-chloro-6-trifluoromethyl-1H-benzoimidazole-2-yl)-3-trifluoromethyl-[2,3′]bipyridine and 6′-(5-trifluoromethyl-7-chloro-1H-benzoimidazole-2-yl)-3-trifluoromethyl-[2,3′]bipyridine]	58%	23 nM	
FC(F)(F)c1cccnc1-c1ccc(-c2nc3ncc(Br)cc3[nH]2)nc1 [Compound 167, 6′-(6-bromo-1H-imidazo[4,5-b]pyridine-2-yl)-3-trifluoromethyl[2,3′]bipyridine]			55%
FC(F)(F)c1cccnc1-c1ccc(-c2nc3ccc(N4CCOCC4)cc3[nH]2)nc1 [Compound 169, 6′-(6-morpholin-4-yl-1H-benzoimidazo-2-yl)-3-trifluoromethyl-[2,3′]bipyridine]			57%
FC(F)(F)c1ccc2nc(-c3ccc(-n4cccc4)cc3)[nH]c2c1 [Compound 178, 2-(4-pyrrol-1-ylphenyl]-6-trifluoromethyl-1H-benzoimidazole]	20%		
c1cnc2[nH]c(-c3ccc(-n4cccc4)cc3)nc2c1 [Compound 179, 2-(4-pyrrol-1-ylphenyl)-3H-imidazo[4,5-b]pyridine]	100%		
CC(C)(C)c1ccc2nc(-c3ccc(-n4cccc4)cc3)[nH]c2c1 [Compound 181, 6-tert-butyl-2-(4-pyrrol-1-ylphenyl]-1H-benzoimidazole]	40%	221 nM	
FC(F)(F)c1ccc2nc(-c3ccc(-c4ccccc4)cc3)[nH]c2c1 [Compound 183, 2-biphenyl-4-yl-6-trifluoromethyl-1H-benzoimidazole]	17%		
COc1ccc2nc(-c3ccc(Oc4ccccc4)cc3)[nH]c2c1 [Compound 194, 6-methoxy-2-(4-phenoxyphenyl)-1H-benzoimidazole]	30%		
FC(F)(F)c1ccc2nc(-c3cccc(Cn4cc(Cl)cn4)c3)[nH]c2c1 [Compound 195, 2-[3-(4-chloropyrazol-1-ylmethyl)phenyl]-6-trifluoromethyl-1H-benzoimidazole]		1400 nM	

More lines, main results first:

inhibition at 1 µM (rat TRPV1)	IC50 (human vanilloid-1 (hVR1))	SMILES	inhibition in vivo at 20 mg/kg [1]
45%	8570 nM	Clc1ccc2nc(-c3ccc(-c4ncccc4Cl)cc3)[nH]c2c1 [Compound 2, 6-chloro-2-[4-(3-chloropyridin-2-yl)phenyl]-1H-benzoimidazole]	
10%	6040 nM	COc1ccc2nc(-c3ccc(-c4ncccc4Cl)cc3)[nH]c2c1 [Compound 5, 2-[4-(3-chloropyridin-2-yl)phenyl]-6-methoxy-1H-benzoimidazole]	
41%	31 nM	FC(F)(F)c1cnc2nc(-c3ccc(-c4ncccc4Cl)cc3)[nH]c2c1 [Compound 8, 2-[4-(3-chloropyridin-2-yl)phenyl]-6-trifluoromethyl-1H-imidazo[4,5-b]pyridine]	
96%	23 nM	CC(C)(C)c1ccc2nc(-c3ccc(-c4ncccc4C(F)(F)F)cc3)[nH]c2c1 [Compound 30, 6-tert-butyl-2-[4-(3-trifluoromethylpyridin-2-yl)phenyl]-1H-benzoimidazole]	
86%	31 nM	FC(F)(F)c1ccc2nc(-c3ccc(-c4ncccc4Cl)c4ccccc34)[nH]c2c1 [Compound 104, 2-[4-(3-chloropyridin-2-yl)naphthalen-1-yl]-6-trifluoromethyl-1H-benzoimidazole]	
93%	313 nM	CC(C)(C)c1ccc2nc(-c3ccc(-c4ncc(Cl)cc4Cl)c(Cl)c3)[nH]c2c1 [Compound 118, 6-tert-butyl-2-[3-chloro-4-(3,5-dichloropyridin-2-yl)phenyl]-1H-benzoimidazole]	
87%	105 nM	CC(C)(C)c1ccc2nc(-c3ccc(-c4ccccn4)c(Cl)c3)[nH]c2c1 [Compound 126, 6-tert-butyl-2-(3-chloro-4-pyridin-2-ylphenyl)-1H-benzoimidazole]	
90%		FC(F)(F)c1ccc2nc(-c3ccc(Oc4ccccc4)cc3)[nH]c2c1 [Compound 189, 2-(4-phenoxyphenyl-6-trifluoromethyl)-1H-benzoimidazole]	
60%		Clc1ccc2nc(-c3ccc(Oc4ccccc4)cc3)[nH]c2c1 [Compound 191, 6-chloro-2-(4-phenoxyphenyl)-1H-benzoimidazole]	
50%		Fc1ccc2nc(-c3ccc(Oc4ccccc4)cc3)[nH]c2c1 [Compound 193, 6-fluoro-2-(4-phenoxyphenyl)-1H-benzoimidazole]	
